Reference: patent US12392781B2, “Deuterated indole heptamethine cyanine dyes” (University of Notre Dame du Lac, priority 2021, dated 2025)
“Also recorded” adds a separate entry of the source.

Tests used:
[1] = Stability of 1.0 mM aqueous solutions stored at 4° C. in the dark (1H NMR); assay type: physicochemical; conditions: for Purity of aqueous solution: 1.0 mM
Procedure: After 7 days and 28 days (separate samples), 1 mL aliquots were taken from each stock solution, the solutions were lyophilized, the solid residue was dissolved in methanol-d4 and ^1H NMR spectra were acquired.
After 7 days and 28 days (separate samples), 1 mL aliquots were taken from each stock solution, the solutions were lyophilized, the solid residue dissolved in methanol-d4 and ^1H NMR spectra were acquired.

[2] = Stability of 1.0 mM aqueous stock solutions at room temperature under low photon intensity storage (1H NMR, reverse phase TLC); conditions: for Stability of stored stock solution, ICG versus ICG-d5 (degradation to oxidative dimer): one week; for Stability of stored stock solution, ICG versus ICG-d5 (degradation to oxidative dimer) / Conversion to oxidative dimer: reverse phase TLC; for Conversion to oxidative dimer: 3-day old 1.0 mM stock solution, primarily in the dark at room temperature
Procedure: Every day, a 50 μL aliquot was removed from each stock solution, lyophilized, and stored as a solid at −20° C.
At each time point, a 1.0 mL aliquot was taken from the stock solution, the aliquot was lyophilized, the solid residue was dissolved in 0.60 mL of methanol-d4, and a ^1H NMR spectrum was acquired.
The solutions were stored at room temperature and low photon intensity conditions (only exposed to lab lights during sample preparation and when aliquots were removed from samples). After 72 h and 120 h, 1 mL aliquots were taken from each stock solution and lyophilized. In each case, the solid residue was dissolved in 0.6 mL of methanol-d4 and a ^1H NMR spectrum was recorded.
The second set of dye stability experiments were designed to mimic the low photon intensity storage conditions experienced by a typical reconstituted dose in water before it is administered in a clinical setting. Thus, stock solutions of the dyes were exposed to the atmosphere and laboratory lights during the initial reconstitution and periodic sampling, but otherwise stored as capped vials in the dark at room temperature.

[3] = Photophysical properties at room temperature (absorption, fluorescence, quantum yield); assay type: physicochemical; conditions: for λ abs max / λ em max / ε: room temperature; for ε: Beer-Lambert fit 1-5 μM; for ΦF (fluorescence quantum yield): absolute (integrating sphere) for ICG, ICG-d5, ICG-d7, relative to ICG for 1; for Brightness: in M^-1 cm^-1 (unit assumed)
Procedure: Reagents and solvents were purchased from Sigma-Aldrich, VWR, Oakwood, Thermo Fisher and used without further purification unless stated otherwise. Column chromatography was performed using Biotage Sfär C18 Duo columns (part #FSUD-0401). Reverse- phase thin layer chromatography (TLC) experiments were performed on C18 TLC plates with F254s indicator (MilliporeSigma, part #1.15683). ^1H NMR spectra were recorded on a Bruker 500 NMR spectrometer. Chemical shifts are presented in ppm and referenced by residual solvent peak. High-resolution mass spectrometry (HRMS) was performed using a time-of-flight (TOF) analyzer with electrospray ionization (ESI), with sample dilution in water/acetonitrile as the standard produre. Electronic absorption spectra were recorded on an Evolution 201 UV/vis spectrometer with Thermo Insight software. Fluorescence spectra were collected on a Horiba Fluoromax-4 fluorometer with a maximum detection wavelength of 850 nm. Analyte solutions were prepared on the lab bench (exposed to air and light) using in HPLC grade water (Sigma-Aldrich), dimethylsulfoxide (Sigma-Aldrich), pH 7.4 1× phosphate buffered saline (Thermo Fisher) or fetal bovine serum (Sigma-Aldrich). Stock solutions for spectroscopy studies were prepared and used within 2 hours. All absorption and fluorescence spectra were collected using quartz cuvettes (1 mL, 1 cm path length).
Samples were excited at 730 nm with optical density≤0.05. First, photons were recorded with an integrating sphere after the excitation of a blank solvent reference, then the reference was replaced by a sample solution, and the spectrum (720-875 nm) was acquired again. The quantum yield was calculated by the equation below:
[formula] where P is the number of photons, F is the fluorescence intensity and E is the intensity at the excitation wavelength. Experiments were conducted in triplicate, with the reported absolute quantum yields corresponding to the mean value±standard deviation.
The fluorescence spectrum of each solution was obtained with excitation at 720 nm, and the integrated area was used to calculate the quantum yield according to the following equation:
[formula] where η is the refractive index of the solvent, I is the integrated fluorescence intensity, and A is the absorbance at a chosen wavelength. The estimated error for this method is ±15%.

[4] = biological target: bovine serum albumin (BSA) (Bos taurus, UniProt P02769); experiment: Bovine serum albumin (BSA) binding by tryptophan fluorescence quenching titration; conditions: pH 7.4 PBS buffer, 37° C.; for Association constant Ka, titration isotherm fitted to 1:1 model: N=3
Chain of bovine serum albumin (BSA) (P02769 25-607): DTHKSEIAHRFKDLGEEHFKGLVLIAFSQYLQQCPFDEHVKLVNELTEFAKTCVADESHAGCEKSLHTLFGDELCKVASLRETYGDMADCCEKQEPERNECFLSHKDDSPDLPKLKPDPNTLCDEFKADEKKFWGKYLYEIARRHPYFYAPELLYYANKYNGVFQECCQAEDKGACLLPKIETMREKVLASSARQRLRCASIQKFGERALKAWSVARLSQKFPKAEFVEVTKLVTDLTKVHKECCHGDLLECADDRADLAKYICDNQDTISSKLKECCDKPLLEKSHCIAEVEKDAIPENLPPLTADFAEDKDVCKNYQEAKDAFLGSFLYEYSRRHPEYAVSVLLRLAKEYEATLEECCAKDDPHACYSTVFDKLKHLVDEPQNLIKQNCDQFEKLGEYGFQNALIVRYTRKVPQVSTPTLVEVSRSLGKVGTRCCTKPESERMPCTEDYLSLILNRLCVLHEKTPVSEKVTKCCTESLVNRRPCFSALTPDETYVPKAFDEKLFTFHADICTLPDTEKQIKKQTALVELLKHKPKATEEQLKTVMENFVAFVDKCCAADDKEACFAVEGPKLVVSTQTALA
Procedure: The titration experiments measured quenching of bovine serum albumin (BSA, 1 mL of 2 μM solution in pH 7.4 PBS buffer) tryptophan fluorescence at 37° C. as dye was added incrementally. A fluorescence spectrum (ex: 280 nm, slit width: 2 nm) was acquired after each dye aliquot was added (2 μL of 1 mM dye stock solutions in water). After each aliquot addition, the solution was mixed and allowed to equilibrate at 37° C. for 5 min before spectral acquisition. Association constants were determined by plotting the change in fluorescence intensity at 345 nm verses molar equivalents using 1:1 binding stoichiometry on the BindFit software. Experiments were done in triplicates. Equations for determining association and dissociation constant are shown below:
[formula] [formula] where F is the fluorescence intensity of tryptophan after adding certain amount of dye, k is the proportionality constant for BSA tryptophan under the experimental condition, Ka is the association constant, [BSA]

[5] = cited from earlier work
[6] = 20 μg/mL solution in water, 24 hours; cited from earlier work
[7] = Photobleaching under high intensity irradiation (150 W Xenon lamp, 620 nm long-pass filter); conditions: 6 h irradiation, 1.0 mM or 0.05 mM in water or ethanol, TLC
[8] = 1.0 mM in water, room temperature, low photon intensity, storage 72 h, 1H NMR
[9] = 1.0 mM in water, room temperature, low photon intensity, storage 120 h, 1H NMR
[10] = 1.0 mM in water, room temperature

Row | SMILES | Purity of aqueous solution ([1]; 7 days storage) [%] | Purity of aqueous solution ([1]; 28 days storage) [%] | Weight percentage remaining in aqueous stock solution [2, 8] [wt %] | Weight percentage remaining in aqueous stock solution [2, 9] [wt %] | Stability of stored stock solution, ICG versus ICG-d5 (degradation to oxidative dimer) [2, 10] | Conversion to oxidative dimer [2] [%] | λ abs max ([3]; DMSO) [nm] | λ em max ([3]; DMSO) [nm] | ε ([3]; DMSO) | ΦF (fluorescence quantum yield) ([3]; DMSO) [%] | Brightness ([3]; DMSO) | λ abs max ([3]; FBS) [nm] | λ em max ([3]; FBS) [nm] | ε ([3]; FBS) | ΦF (fluorescence quantum yield) ([3]; FBS) [%] | Brightness ([3]; FBS) | Association constant Ka, titration isotherm fitted to 1:1 model [4] | other results
1 | [2H]C(=C\C1=[N+](CCCCS(=O)(=O)[O-])c2ccc3ccccc3c2C1(C)C)/C([2H])=C([2H])/C([2H])=C([2H])/C=C1/N(CCCCS(=O)(=O)[O-])c2ccc3ccccc3c2C1(C)C.[Na+] [ICG-d5, Indocyanine Green-d5] | 99 | 85 | 86.0 ± 0.8 | 80.9 ± 1.2 | substantially more stable | ~2 | 793 | 819 | 253,000 M^−1cm^−1 | 19.8 ± 0.5 | 49,000 | 796 | 813 | 205,000 M^−1cm^−1 | 10.5 ± 0.3 | 21,000 | (3.8±0.6)×10^5 M^−1 | Stability of stock solution in a refrigerator ([1]; 7 and 28 days): increased stability in a refrigerator
2 | CC1(C)C(/C=C/C=C/C=C/C=C2/N(CCCCS(=O)(=O)[O-])c3ccc4ccccc4c3C2(C)C)=[N+](CCCCS(=O)(=O)[O-])c2ccc3ccccc3c21.[Na+] [ICG, Indocyanine Green, reference compound] | 85 | 52 | 73.6 ± 1.7 | 67.4 ± 1.0 | more degradation | ~20 | 795 | 820 | 224,000 M^−1cm^−1 | 16.7 ± 0.6 | 37,000 | 800 | 813 | 197,000 M^−1cm^−1 | 9.7 ± 0.4 | 19,000 | (3.4±0.5)×10^5 M^−1 | Water solubility [5]: 1000 µg/mL; Effect of H2O2 on formation of oxidative dimer 1 ([2]; 1.0 mM in water, 5 h, H2O2 10 molar equivalents, TLC): higher amount of oxidative dimer 1; Effect of air and light exposure on formation of oxidative dimer 1 ([2]; 1.0 mM in water, 30 h, room temperature, TLC and NMR): inhibits formation of oxidative dimer 1; Effect of additives on dimerization to oxidative dimer 1 ([2]; 1 mM in water, additives 10 molar equivalents, 24 h, room temperature, low photon intensity, TLC): promoted by the presence of NaI; also recorded: stopped by base (NaHCO3 and NaOAc), singlet oxygen quencher (NaN3) and reductant (Na2SO3 and Na ascorbate); Dimerization in water versus ethanol ([2]; 1.0 mM, 48 h, room temperature, low photon intensity, TLC): favored in water; Degradation to oxidative dimer 1 versus concentration ([2]; water, different concentrations, 72 h, room temperature, low photon intensity, 1H NMR): slower at higher concentrations; ICG remaining [6]: 20%; Photostability versus concentration and solvent [7]: 1.0 mM ICG solution in water is more photostable than a 0.05 mM ICG solution in water
3 | CC1(C)C(=CC=CC=C(C=CC2=[N+](CCCCS(=O)(=O)[O-])c3ccc4ccccc4c3C2(C)C)C(C=CC2=[N+](CCCCS(=O)(=O)[O-])c3ccc4ccccc4c3C2(C)C)=CC=CC=C2N(CCCCS(=O)(=O)O)c3ccc4ccccc4c3C2(C)C)N(CCCCS(=O)(=O)O)c2ccc3ccccc3c21 [compound 1] | – | – | – | – | – | – | – | – | – | – | – | – | – | – | – | – | – | Kd ([4]; fluorescence titration, 2 μM BSA, read-out: Dissociation constant (Kd) of BSA binding): 34 µM
